Assay results taken from patent US20090171621A1, “MEASURING THE DISTANCE BETWEEN DEVICES” (KONINKLIJKE PHILIPS ELECTRONICS, N.V., priority 2004, published 2009).

Tests used:
[1] = test system: ISA brown hens; assay: Egg cholesterol analysis (yolk weight, yolk cholesterol by gas chromatography) of hens fed supplemented diet; assay type: in vivo; details: for Cholesterol content / Cholesterol content change / Cholesterol concentration: 6 weeks; for Cholesterol content change: compared to control; for Cholesterol concentration: per gram of yolk; for Total yolk/egg cholesterol content, percentage change (reduction) compared to control: 0.03% in feed; for Egg york weight: 6 weeks (Table 5)
Method: (§1) Healthy ISA brown hens, 45-week old, were assigned randomly to each dietary group (control group, 8 birds; experimental group, 6 birds each). Each bird was placed in an individual cage in an environmentally controlled room (25° C., 50% relative humidity, 16L:8D). The hens were allowed for 2 weeks in which to adapt to the feed with no additives and the housing. Control birds were fed a commercial diet based on corn and soybean meal (Table 1), while birds in experimental groups were fed diets supplemented with 0.003 or 0.03% of compactin (Sigma Aldrich Korea) for 6 weeks. Feed and water were provided ad libitum throughout the experiment. Feed consumption, egg production and egg weight were recorded daily. Egg production was expressed as percent hen day production; (100×number of eggs laid)/(number of hens×days).
For egg cholesterol analysis, eggs from each bird were collected and egg yolk was separated, weighed, and sampled for analysis. Lipids from eggs were extracted by the method of Folch et al. (1957). Briefly, one gram of sample was saponified with 3 mL of 33% KOH and incubated with 30 mL of 95% methanol in a 65° C. water bath for 90 min. After saponification, 10 mL hexane and 3 mL water were added, followed by vigorous shaking for 10 min. 5α-cholestan (Sigma C-8300) was used as an internal standard. Cholesterol content was determined by a gas chromatography (Shimadzu, Japan) using column VB-1 (30 m×0.25 mm×0.25 μm, VICI Inc.) with a split ratio of 100:1 and nitrogen as carrier gas for a column flow rate of 0.54 mL/min. Injector, column, and detector temperatures were 275° C., 290° C., and 340° C., respectively.
Egg production and yolk cholesterol analysis was performed with 0.003 and 0.03% pravastatin administered group with the same procedure as described in Example 1 above. Hen performance was investigated by measuring egg weight and egg production as in Table 4. […]

[2] = test system: ISA brown hens; assay: Egg laying performance of hens fed supplemented diet (egg weight, egg production); assay type: in vivo; details: for Egg weight / Egg production: 6 weeks; for Egg production: percent hen day production
Method: as §1
The effects of 0.003% or 0.03% compactin on the laying performance of 45-week old ISA brown hens were investigated (Table 2). Egg weight was maintained at more than 60 grams after 6 weeks of oral administrations of compactin at both doses. […] Maintenance of laying performance with compactin feeding is of contrast to the previous art in which atorvastatin reduced egg production down to 70% after feeding for 5-week.
Egg production and yolk cholesterol analysis was performed with 0.003 and 0.03% pravastatin administered group with the same procedure as described in Example 1 above. Hen performance was investigated by measuring egg weight and egg production as in Table 4. Pravastatin group had maintained above 80% of egg production rate after 6-week administration, same as control.
Egg production and yolk cholesterol analysis was performed with the same procedure as described in Example 1 above except 0.5 and 1% of Streptomyces cell precipitates and bioconversion reaction broth were administered instead of compactin. Hen performance was investigated by measuring egg weight and egg production as in Table 6.

[3] = clinical trials / prescription drug development; cited from earlier work
[4] = test system: egg-laying chickens; details: previous art, cited from earlier work
[5] = test system: egg-laying chickens; details: previous art, cited from earlier work; remark: listed apart in the source

Row | Molecule | Cholesterol content ([1]; 0.003 weight % added to feed) | Cholesterol content change ([1]; 0.003 weight % added to feed) | Cholesterol concentration ([1]; 0.003 weight % added to feed) | Total yolk/egg cholesterol content, percentage change (reduction) compared to control ([1]; given without sign) | Cholesterol content ([1]; 0.03 weight % added to feed) | Cholesterol content change ([1]; 0.03 weight % added to feed) | Cholesterol concentration ([1]; 0.03 weight % added to feed) | Toxicity [3] | further results
1 | CC[C@H](C)C(=O)O[C@H]1CCC=C2C=C[C@H](C)[C@H](CC[C@@H]3C[C@@H](O)CC(=O)O3)[C@H]21 [Compactin, compactin] | 185 mg/egg | −16% | 11.2 ± 0.3 mg/g | 29% | 156 mg/egg | −29% | 10.5 ± 0.2 mg/g | serious toxicity | Total yolk cholesterol content, percentage change (reduction) compared to control ([1]; 0.003% in feed, given without sign): 16%; Egg production compared to the control group ([2]; in vivo): did not cause any difference in egg production
2 | CC(C)c1c(C(=O)Nc2ccccc2)c(-c2ccccc2)c(-c2ccc(F)cc2)n1CC[C@@H](O)C[C@@H](O)CC(=O)O [atorvastatin] |  |  |  |  |  |  |  |  | Cholesterol-lowering effect in eggs ([4]; 0.03-0.06% fed for 5 weeks): satisfactory; Egg production reduced down to ([5]; after feeding for 5-week): 70%; Decrease of egg production rate compared to control [5]: more than 15%; Effect of oral administration on egg production [5]: decrease egg production
3 | CC[C@H](C)C(=O)O[C@H]1C[C@@H](C)C=C2C=C[C@H](C)[C@H](CC[C@@H]3C[C@@H](O)CC(=O)O3)[C@H]21 [lovastatin] |  |  |  |  |  |  |  |  | Reduction of egg cholesterol level ([4]; at its high dose): 3-6%
4 | pravastatin | 207 mg/egg | −6% | 12.5 ± 0.5 mg/g | 24% | 167 mg/egg | −24% | 10.4 ± 0.5 mg/g | not toxic | Egg york weight ([1]; 0.003 weight % added to feed): 16.5 ± 0.4 g; Egg york weight ([1]; 0.03 weight % added to feed): 16.1 ± 0.4 g; Egg weight ([2]; 0.003 weight % added to feed): 62.5 ± 0.3 g; Egg production ([2]; 0.003 weight % added to feed): 84%; Egg weight ([2]; 0.03 weight % added to feed): 58.8 ± 0.7 g; Egg production ([2]; 0.03 weight % added to feed): 82%; Egg production rate maintained ([2]; after 6-week administration, 0.003 and 0.03%): above 80%
